Like-named read-outs stand apart in the source and are kept apart here.
Assays:
[1] = molecular target: T1, MLC kinase (myosin light-chain kinase) (Gallus gallus, UniProt P11799); experiment: inhibition of MLC kinase, in vitro enzyme test (32P phosphate incorporation); type: biochemical, chicken (stomach); settings: for ratio of IC50 C-kinase/IC50 MLC-kinase: selectivity factor calculated from the IC50 values; for MLC kinase inhibition, in words: potency and selectivity vs protein kinase C
T1 construct: MLC kinase was purified from chicken stomach; from tissue; host or cells: chicken stomach (gizzard smooth muscle)
T1 sequence (P11799 935-1906): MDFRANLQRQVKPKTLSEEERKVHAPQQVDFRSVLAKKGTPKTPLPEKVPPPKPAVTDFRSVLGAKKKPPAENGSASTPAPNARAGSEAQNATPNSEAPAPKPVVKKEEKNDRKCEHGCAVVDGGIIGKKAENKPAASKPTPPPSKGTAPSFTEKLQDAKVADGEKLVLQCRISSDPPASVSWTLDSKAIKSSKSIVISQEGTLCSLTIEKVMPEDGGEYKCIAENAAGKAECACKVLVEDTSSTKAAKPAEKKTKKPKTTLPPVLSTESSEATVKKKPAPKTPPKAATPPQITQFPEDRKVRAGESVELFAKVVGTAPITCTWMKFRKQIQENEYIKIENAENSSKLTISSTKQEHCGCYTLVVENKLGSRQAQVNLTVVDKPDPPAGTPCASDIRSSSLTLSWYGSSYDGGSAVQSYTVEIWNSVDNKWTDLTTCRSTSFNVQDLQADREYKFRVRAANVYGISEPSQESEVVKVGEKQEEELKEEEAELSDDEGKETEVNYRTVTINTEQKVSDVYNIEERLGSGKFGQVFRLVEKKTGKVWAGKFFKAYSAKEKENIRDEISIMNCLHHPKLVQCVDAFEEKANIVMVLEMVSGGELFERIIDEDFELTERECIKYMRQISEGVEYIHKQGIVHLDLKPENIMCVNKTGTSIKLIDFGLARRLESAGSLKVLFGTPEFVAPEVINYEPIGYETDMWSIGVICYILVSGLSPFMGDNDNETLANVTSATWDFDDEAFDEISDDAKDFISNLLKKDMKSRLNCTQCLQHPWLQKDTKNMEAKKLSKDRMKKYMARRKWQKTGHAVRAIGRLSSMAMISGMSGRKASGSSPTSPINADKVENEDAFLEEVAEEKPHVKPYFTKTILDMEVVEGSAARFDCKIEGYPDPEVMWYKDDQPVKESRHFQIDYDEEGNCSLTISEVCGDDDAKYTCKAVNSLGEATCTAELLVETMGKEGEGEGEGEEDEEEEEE

[2] = molecular target: protein kinase C; experiment: inhibition of protein kinase C, enzyme test; type: biochemical; settings: read-out: inhibition of the protein kinases, C-kinase IC50
Procedure: In order to ascertain whether it is a question of a selective inhibition of MLC kinase, the compounds were also investigated in other enzyme tests for protein kinase, including tests for protein kinase C. The results from the PKC test are also given in the following Table I. Furthermore, the Table contains selectivity factors which were calculated by the determination of the ratios of the IC50 values.

[3] = system: narcotised, spontaneously hypertensive rat (SHR); experiment: anti-hypertensive action in narcotised spontaneously hypertensive rats, i.v.; type: in vivo; settings: for reduction of the average arterial blood pressure / reduction of the heart frequency: 60 minutes after administration, average ± SD; for anti-hypertensive action, in words / influencing of the heart frequency, in words: i.v.
Procedure: As test model, there was used the narcotised, spontaneously hypertensive rat (SHR). After intravenous administration of the inhibitor of MLC kinase, in each case 60 minutes after the administration of the compound, there were found the reductions of the average arterial blood pressure set out in the following Table 2.

[4] = 1 nM MLC kinase, 250 μM ATP, pH 7.2, 20 minutes at 30° C., read-out: inhibition of the protein kinases, MLC-kinase IC50

| IC50 [1, 4] [nM] | ratio of IC50 C-kinase/IC50 MLC-kinase [1] | IC50 [2] [nM] | Compound | MLC kinase inhibition, in words [1] | also measured |
| --- | --- | --- | --- | --- | --- |
| 5.7 | 1.3 | 7 | O=C1NC(=O)c2c1c1c3cc(O)ccc3[nH]c1c1[nH]c3ccc(O)cc3c21 [Example 2e, 6,7,12,13-tetrahydro-3,9-dihydroxy-5,1-dioxo-5H-indolo[2,3-a]pyrrolo[3,4-c]carbazole] |  |  |
| 10 | 0.4 | 4.2 | Cn1c2ccc(O)cc2c2c3c(c4c5cc(O)ccc5n(CCC#N)c4c21)C(=O)NC3=O [Example 2f, 12-(2-cyanoethyl)-6,7,12,13-tetrahydro-3,9-dihydroxy-13-methyl-5,7-dioxo-5H-indolo[2,3-a]pyrrolo-[3,4-c]carbazole] |  |  |
| 5 | 8 | 40 | CN(C)CCCn1c2ccc(O)cc2c2c3c(c4c5ccccc5n(C)c4c21)C(=O)NC3=O [Example 2g, 13-(3-dimethylaminopropyl)-6,7,12,13-tetrahydro-3-hydroxy-12-methyl-5,7-dioxo-5H-indolo[2,3-a]pyrrolo-25 [3,4-c]carbazole] |  |  |
| 76 | 2.5 | 190 | Cn1c2ccccc2c2c3c(c4c5ccccc5n(CCC[N+](C)(C)C)c4c21)C(=O)NC3=O [Example 3, 12-(3-Dimethylaminopropyl)-6,7,12,13-tetrahydro-13-methyl-5,7-dioxo-5H-indolo[2,3-a]pyrrolo[3,4-c]-carbazole; methiodide] |  |  |
| 1.2 | 33 | 39 | Cn1c2ccccc2c2c3c(c4c5ccccc5n(CCCN)c4c21)C(=O)NC3=O [Example 4, 12-(3-Aminopropyl)-6,7,12,13-tetrahydro-13-methyl-5,7-dioxo-5H-indolo[2,3-a]pyrrolo[3,4-c]carbazole] | potent and selective inhibitors of MLC kinase |  |
| 4.9 | 74 | 360 | COc1ccc2c(c1)c1c3c(c4c5ccccc5n(C)c4c1n2CCCN)C(=O)NC3=O [Example 4a, 13-(3-aminopropyl)-6,7,12,13-tetrahydro-3-methoxy-12-methyl-5,7-dioxo-5H-indolo[2,3-a]pyrrolo[3,4-c]-carbazole] | potent and selective inhibitors of MLC kinase |  |
| 1.5 | 23 | 34 | COc1ccc2c(c1)c1c3c(c4c5cc(Cl)ccc5n(CCCN)c4c1n2C)C(=O)NC3=O [Example 4b, 13-(3-aminopropyl)-3-chloro-6,7,12,13-tetrahydro-9-methoxy-12-methyl-5,7-dioxo-5H-indolo[2,3-a]pyrrolo-[3,4-c]carbazole] | potent and selective inhibitors of MLC kinase |  |
| 21 | 2.5 | 53 | CC(C)NCCCn1c2ccccc2c2c3c(c4c5ccccc5n(C)c4c21)C(=O)NC3=O [Example 4c, 13-(3-isopropylaminopropyl)-6,7,12,13-tetrahydro-13-methyl-5,7-dioxo-5H-indolo[2,3-a]pyrrolo[3,4-c]-carbazole] |  |  |
| 3.7 | 24 | 87 | NC(=O)CCn1c2ccccc2c2c3c(c4c5ccccc5[nH]c4c21)C(=O)NC3=O [Example 5, 12-(2-Carbamoylethyl)-6,7,12,13-tetrahydro-5,7-dioxo-5H-indolo[2,3-a]pyrrolo[3,4-c]carbazole] | potent and selective inhibitors of MLC kinase | reduction of the average arterial blood pressure ([3]; 1 mg/kg i.v.): 15 ± 5%; reduction of the heart frequency ([3]; 1 mg/kg i.v.): 3 ± 3%; reduction of the average arterial blood pressure ([3]; 3 mg/kg i.v.): 23 ± 3%; reduction of the heart frequency ([3]; 3 mg/kg i.v.): 7 ± 4%; reduction of the average arterial blood pressure ([3]; 10 mg/kg i.v.): 40 ± 8%; reduction of the heart frequency ([3]; 10 mg/kg i.v.): 4 ± 3%; anti-hypertensive action, in words [3]: dosage-dependent anti-hypertensive action could be demonstrated; influencing of the heart frequency, in words [3]: scarcely observable |
| 40 | 9.5 | 380 | COc1ccc2[nH]c3c(c4c(c5c6cc(OC)ccc6n(CCCN(C)C)c35)C(=O)NC4=O)c2c1 [Example 7, 12-(3-Dimethylaminopropyl)-6,7,12,13-tetrahydro-3,9-dimethoxy-5,7-dioxo-5H-indolo[2,3-a]pyrrolo[3,4-c]-carbazole] |  |  |
| 52 | 10 | 530 | CN(C)CCCn1c2ccccc2c2c3c(c4c5ccccc5[nH]c4c21)C(=O)NC3=O [Example 7a, 13-(3-dimethylaminopropyl)-6,7,12,13-tetrahydro-5,7-dioxo-5H-indolo[2,3-a]pyrrolo[3,4-c]carbazole] |  |  |
| 8.7 | > 1149 | > 10000 | COc1ccc2[nH]c3c(c4c(c5c6cc(OC)ccc6n(C)c35)C(=O)NC4=O)c2c1 [Example 7b, 6,7,12,13-tetrahydro-3,9-dimethoxy-12-methyl-5,7-dioxo-5H-indolo[2,3-a]pyrrolo[3,4-c]carbazole] | potent and selective inhibitors of MLC kinase |  |
| 23 | > 435 | > 10000 | Cn1c2ccccc2c2c3c(c4c5ccccc5[nH]c4c21)C(=O)NC3=O [Example 7c, 6,7,12,13-tetrahydro-12-methyl-5,7-dioxo-5H-indolo[2,3-a]pyrrolo[3,4-c]carbazole] | potent and selective inhibitors of MLC kinase | reduction of the average arterial blood pressure ([3]; 3 mg/kg i.v.): 10 ± 7%; reduction of the heart frequency ([3]; 3 mg/kg i.v.): 7 ± 3%; reduction of the average arterial blood pressure ([3]; 10 mg/kg i.v.): 23 ± 2%; reduction of the heart frequency ([3]; 10 mg/kg i.v.): 8 ± 2%; anti-hypertensive action, in words [3]: dosage-dependent anti-hypertensive action could be demonstrated; influencing of the heart frequency, in words [3]: scarcely observable |
| 8.4 | 3.0 | 25 | COc1ccc2[nH]c3c(c4c(c5c6ccccc6n(C)c35)C(=O)NC4=O)c2c1 [Example 7d, 6,7,12,13-tetrahydro-3-methoxy-12-methyl-5,7-dioxo-5H-indolo[2,3-a]pyrrolo[3,4-c]carbazole] |  |  |
| 5.2 | 11.3 | 59 | O=C1NC(=O)c2c1c1c3ccccc3[nH]c1c1c2c2ccccc2n1CC(O)CO (stereo not shown) [Example 8, 12-(2,3-Dihydroxy-1-propyl)-6,7,12,13-tetrahydro-5,7-dioxo-5H-indolo[2,3-a]pyrrolo[3,4-c]carbazole] |  |  |
| 60 | 4.7 | 280 | COc1ccc2[nH]c3c4[nH]c5ccccc5c4c4c(c3c2c1)C(=O)NC4=O [Example 11b, 6,7,12,13-tetrahydro-3-methoxy-5,7-dioxo-5H-indolo[2,3-a]pyrrolo[3,4-c]carbazole] |  |  |
| 86 | 47 | 4000 | O=C1NC(=O)c2c1c1c3ccccc3[nH]c1c1[nH]c3cc(Cl)ccc3c21 [Example 11c, 2-chloro-6,7,12,13-tetrahydro-5,7-dioxo-5H-indolo[2,3-a]pyrrolo[3,4-c]carbazole] | potent and selective inhibitors of MLC kinase |  |
| 600 | > 17 | > 10000 | Cc1ccc2[nH]c3c4[nH]c5ccc(C)cc5c4c4c(c3c2c1)C(=O)NC4=O [Example 11e, 6,7,12,13-tetrahydro-3,9-dimethyl-5,7-dioxo-5H-indolo[2,3-a]pyrrolo[3,4-c]carbazole] |  |  |
| 370 | 12 | 4600 | O=C1NC(=O)c2c1c1c3cc(Br)ccc3[nH]c1c1[nH]c3ccc(Br)cc3c21 [Example 11g, 3,9-dibromo-6,7,12,13-tetrahydro-5,7-dioxo-5H-indolo[2,3-a]pyrrolo[3,4-c]carbazole] |  |  |

| Compound | IC50 [1, 4] [nM] | ratio of IC50 C-kinase/IC50 MLC-kinase [1] | IC50 [2] [nM] | MLC kinase inhibition, in words [1] | also measured |
| --- | --- | --- | --- | --- | --- |
| O=C1NC(=O)c2c1c1c3ccccc3[nH]c1c1[nH]c3ccccc3c21 [Example 11a, 6,7,12,13-tetrahydro-5,7-dioxo-5H-indolo[2,3-a]pyrrolo[3,4-c]carbazole] |  | 4.5 | 1900 |  | IC50 [1]: 420 nM |
| COc1ccc2[nH]c3c4[nH]c5ccc(OC)cc5c4c4c(c3c2c1)C(=O)NC4=O [Example 11d, 6,7,12,13-tetrahydro-3,9-dimethoxy-5,7-dioxo-5H-indolo[2,3-a]pyrrolo[3,4-c]carbazole] | 21 | > 476 | > 10000 | potent and selective inhibitors of MLC kinase | reduction of the average arterial blood pressure ([3]; 3 mg/kg i.v.): 16 ± 3%; reduction of the heart frequency ([3]; 3 mg/kg i.v.): 6 ± 2%; reduction of the average arterial blood pressure ([3]; 10 mg/kg i.v.): 35 ± 5%; reduction of the heart frequency ([3]; 10 mg/kg i.v.): 10 ± 3%; anti-hypertensive action, in words [3]: dosage-dependent anti-hypertensive action could be demonstrated; influencing of the heart frequency, in words [3]: scarcely observable |

Source: patent US5945440A, “Indolocarbazole imides and the use thereof” (priority 1992, dated 1999)
